# Measured values from the RepoRT retention time repository.
# Test: Agilent ZORBAX 300 SB-C18, 150 × 1 mm, 3.5 µm; A: water + 0.01% heptafluorobutyric acid; B: acetonitrile + 0.01% heptafluorobutyric acid; gradient (min/%B) 0/0 100/90
# Settings: stereoisomer not certain
row,LC retention time [min],Compound
1,9.04,C#CCN(CCCC)CCCC
2,13.3,COc1ccc(C(CNC(=O)c2n[nH]c(=O)c3ccccc23)Cc2ccccc2)cc1OC (configuration not stated)
3,8.72,CCN(CC)C(=O)N1CCN(c2ccc(N)cc2)CC1
4,9.35,O=C(O)CCC(=O)Nc1ccc(Cc2ccc(NC(=O)CCC(=O)O)cc2)cc1
5,9.28,CCN(CC)CC(=O)Nc1c(C)cc(C)cc1C
6,10.7,COc1ccc(OC)c(NC(=O)Cn2c(=O)n(C)c(=O)n(C)c2=O)c1
7,10.2,Cc1ccc(N2CC(C(=O)O)CC2=O)cc1C (configuration not stated)
8,13.5,CCCCCCCCCCCCNC
9,16.5,CCc1ccc(NCCC(=O)c2ccc(C(C)(C)C)cc2)cc1
10,8.38,NC(CCC(=O)OCc1ccccc1)C(=O)O (configuration not stated)
11,4.83,CCCN
12,11.5,COc1ccc(CNCc2ccc(C(C)C)cc2)cc1
13,8.26,CCC(C)N1CNc2c(c(=O)[nH]c(=O)n2-c2ccc(C)c(C)c2)C1 (configuration not stated)
14,10.8,CCNc1ccccc1C(=O)O
15,6.58,CC(N)CN(C)C (configuration not stated)
16,16.6,CCCCCCCCCCCC[N+](C)(C)CCOc1ccccc1
17,9.76,CCn1c2ccccc2c2cc(N)ccc21
18,2.86,NC(CO)(CO)CO
19,12.3,CCCCCCCCCC[N+](C)(C)C
20,17.5,CCn1c2ccccc2c2ccccc21
21,9.68,CCCCCCC(N)=O

row,LC retention time [min],Compound
1,6.88,CCNCCNCC
2,8.46,Cc1ccc(CNC(C)(C)C)s1
3,9,CC1(C)CC(NC(=S)Nc2ccccc2)CC(C)(C)N1
4,7.81,CCC(NC(C)C)C(O)c1ccc(O)c2[nH]c(=O)ccc12 (configuration not stated)
5,8.44,CC[N+](CC)(CC)CCOc1cccc(OCC[N+](CC)(CC)CC)c1OCC[N+](CC)(CC)CC
6,9.48,Cc1cc[n+](CCc2ccccc2)cc1C
7,8.17,CCCN(CCC)CCC
8,12.5,CCOC(=O)c1[nH]c(C)cc1C
9,10.9,CCNC(=S)NNC(=S)NCc1ccccc1
10,8.47,CCCCCC[N+](C)(C)C
11,14.2,CCCCC(CC)CNCC(CC)CCCC (configuration not stated)
12,10.8,CCOC(=O)C(C(C)=NNC(=O)c1ccc(NC(C)=O)cc1)C(C)C (configuration not stated)
13,7.2,NCCCCCCCCN
14,8.37,CCN(CC)CCNc1c(N)c(=O)oc2ccccc12
15,10.2,CCCC(CCC)C(=O)NC1CCN(Cc2ccccc2)CC1
16,9.79,Cc1ccc(C=NNC(=O)C(=O)NC(C)C)o1
17,21.2,CCCCCC(=O)OC1(C(C)=O)CCC2C3CCC4=CC(=O)CCC4(C)C3CCC21C (configuration not stated)
18,7.81,CCCNCc1ccc2c(c1)n(C)c(=O)n2C
19,9.93,CCn1c(C)cc(C=O)c1C
20,6.69,O=C(O)CCCc1ccncc1

# The next lines start with the compound.
row,Compound,LC retention time [min]
1,c1ccc(Oc2nnc(-c3ccccc3)c3ccccc23)cc1,15.8
2,Cc1ccc(C)c2c1ccn2C,15.8
3,S=C(Nc1ccccn1)NC1CCCCC1,10.7
4,Cc1ccc(-c2cc(-c3ccc(C)cc3)on2)cc1,18.8
5,Cc1ccccc1N1C(=O)c2ccc(C(=O)O)cc2C1=O,12
6,S=C(Nc1cccnc1)N(CCc1ccccc1)Cc1ccccc1,12.8
7,CCN1CCCCC1,6.52
8,CC(C)(C)c1ccc(-c2nc3ccccc3s2)cc1,21.3
9,C[N+](C)(C)c1ccccc1,7
10,Nc1ccc(NC(=O)c2cccc(C(=O)Nc3ccc(N)cc3)c2)cc1,7.98
11,c1cc2c(cc1NC1=NCCCCC1)OCCO2,9.12
12,CC1CCN(C(=O)C2CCCNC2)CC1 (configuration not stated),8.27
13,Oc1ccc2c3c1OC1C(O)CCC4(O)C(C2)N(CC2CCC2)CCC314 (configuration not stated),8.75
14,O=C(O)c1c2ccccc2nc2ccccc12,5.86
15,O=C1NN=C(c2ccccc2)CC1c1c[nH]c2ccccc12 (configuration not stated),12.3
16,Cc1cccc(N)c1,8.01
17,CCOC1COCC1N (configuration not stated),6.48
18,COC(=O)c1c(C)[nH]c(-c2ccccc2)c1-c1ccccc1,15.6
19,O=c1[nH][nH]c2c1CCCC2,7.38
20,Nc1ccc(C(=O)Nc2cccc3ccccc23)cc1,11.1
21,Cc1cccc(NC(=O)C(Cc2c[nH]c3ccccc23)NC(=O)C(c2ccccc2)c2ccccc2)c1 (configuration not stated),16.8
22,CN1CCc2cccc3c2C1Cc1ccc(O)c(O)c1-3 (configuration not stated),8.8
23,O=C(O)C1(c2ccccc2)CCCCN1 (configuration not stated),6.67

row,Compound,LC retention time [min]
1,OCc1cccnc1,4.28
2,OCc1ccccc1CN1CCCC1,7.7
3,Cc1cc(C)c(-c2csc(N)n2)c(C)c1,8.82
4,c1csc(-c2cnc3ccccc3n2)c1,14.3
5,O=c1[nH]c(N=NCc2c[nH]c3ccccc23)nnc1-c1ccccc1,11.8
6,S=C(NCc1ccccc1)NCc1ccc2[nH]c3c(c2c1)CCCC3,15.4
7,Oc1ccc2cccc(-n3cccc3)c2c1,14.1
8,Nc1cccc(N2CCOCC2)c1,7.53
9,O=C(O)CCc1nn2c3ccccc3n(CC(=O)O)c2nc1=O,7.51
10,Cc1ccc2[nH]ccc2c1,12.8
11,O=C(O)c1cc(=O)[nH]c(=O)[nH]1,1.33
12,Cc1cccc2c1CC(C)(C)NC2=S,13.3
13,C1CCC(OCCN2CCN(CCOC3CCCCC3)CC2)CC1,10.9
14,COC(=O)Nc1nc2ccc(Sc3ccccc3)cc2[nH]1,12.2
15,CN(N)c1nc(N2CCCC2)nc(N2CCCC2)n1,10.3
16,COc1ccccc1NC(=O)C(=Cc1ccc(OC)c(OC)c1)NC(=O)c1ccccc1,13.5
17,O=c1oc2ccccc2c2nc(-c3ccncc3)ncc12,12.2
18,O=c1ccoc2ccccc12,9.31
19,NC1CCCCC1,7.63
20,CNC(=S)NNC(C)=O,2.17
21,CC(=O)NNC(=O)c1ccncc1,3.54
22,S=C1NCN(C2CCCCC2)CN1,8.07
23,CC1CCc2[nH]c3ccccc3c2C1 (configuration not stated),16.9

row,Compound,LC retention time [min]
1,CCn1c(-c2ccccc2)nn(CN2CCCC2)c1=S,11.8
2,COC(=O)Cn1c(=O)c(-c2ccccc2)nc2ccccc21,14.3
3,O=C(Nc1ccccc1)C(=O)NC(CO)(CO)CO,8.16
4,CCc1ccccn1,6.68
5,O=C(Oc1cccc2cccnc12)c1ccccc1,13.8
6,COc1ccc(Cc2c(O)n(-c3ccccc3)c(=O)[nH]c2=O)c(OC)c1,11.6
7,CNC(=O)c1ccc(N)cc1,6.25
8,Cc1cccc(Nc2cc(=O)[nH]c(=O)[nH]2)c1C,8.71
9,CC(C)c1ccc(C=C2Nc3ccccc3C2=O)cc1,16.9
10,NCc1ccncc1,6.44
11,CN(C)C(=O)Nc1ccccc1,8.37
12,CC(N)C(=O)Nc1ccc2ccccc2c1 (configuration not stated),9.02
13,O=C(O)c1cc(-c2ccccc2)nc2ccccc12,11.6
14,Cc1ccc(NC(=O)C=CC(=O)O)c(C)c1,10.8
15,O=C(NN=Cc1ccc(OCc2ccccc2)cc1)c1ccc(-c2ccccc2)cc1,16.9
16,NC1CCNCC1,6.22
17,O=c1c2ccccc2ncn1Cc1ccncc1,8.03
18,Cc1nc2ccccc2nc1COc1ccc2c(c1)OCO2,14.1
19,O=C(CCN1C(=O)c2ccccc2C1=O)NCc1ccco1,10.2
20,C1=Nc2ccccc2C(c2ccccc2)C1c1ccc2ccccc2n1 (configuration not stated),11.8
21,O=C(C=Cc1ccccc1)c1cc(O)ccc1O,12.5
22,O=C(O)CCNc1n[nH]c(=O)[nH]c1=O,5.51
23,c1cnc(NC2=NCCN2)cn1,6.92

row,Compound,LC retention time [min]
1,CN1C2CCC1C(C(=O)O)C(OC(=O)c1ccccc1)C2 (configuration not stated),8.54
2,c1nc2c(ccc3[nH]cnc32)[nH]1,6.84
3,C=CCC1NC(C)(C)Cc2ccccc21 (configuration not stated),9
4,CC(=NNc1ccccc1)C1=C(C)NC(=O)NC1c1ccccc1 (configuration not stated),10.8
5,C=CCNC1CCCC1,7.45
6,CN1CCC(=O)C2CCCCC21 (configuration not stated),7.15
7,CC(C)CC(C)N (configuration not stated),7.77
8,Nc1nc2ccccc2[nH]1,7.69
9,Nc1cccnc1N,6.18
10,O=S(=O)(O)c1ccc(Nc2ccccc2)cc1,7.25
11,COc1ccc2c3c1OC1C(=O)CCC4(O)C(C2)N(C)CCC314 (configuration not stated),8.39
12,Nc1ccc2[nH]c3c(c2c1)CCCC3,8.89
13,COc1ccc(C=CC(C)=O)cc1,12
14,COc1cccc(C2(O)CCCCC2CN(C)C)c1 (configuration not stated),9.38
15,N=c1c2c3c(sc2ncn1N)CCC3,8.21
16,NC(=O)NC1CCCCC1,7.79
17,CC(=O)Oc1ccc(-c2cnc3ccccc3n2)cc1,13.9
18,Nc1ccc2nccnc2c1,7.1
19,C=Cc1ccc(CN(C)C)cc1,8.6
20,C1CNCCN1,6.38
21,CCN1C(=O)CC(N2CCC(n3c(=O)[nH]c4ccccc43)CC2)C1=O (configuration not stated),8.81
22,C=CC1CN2CCC1CC2C(O)c1ccnc2ccccc12 (configuration not stated),8.84
